Assay results: patent US12577238B2, “Compositions and methods for modulating inflammatory and degenerative disorder” (University of Southern California, priority 2018, dated 2026)
Entries after “also recorded” stand apart in the source; their conditions may differ.

Columns and labels:
[1] = Survival of NZM.2328 female mice (lupus nephritis-like syndrome); format: in vivo; conditions: intraperitoneally twice weekly, 10 mg/kg
[2] = target: T1, gp130 (Homo sapiens, UniProt P40189); assay: OSM-mediated activation of gp130 in adult human articular chondrocytes; format: cell-based; conditions: three independent donors
T1 construct: endogenous in cells; host or cells: adult human articular chondrocytes (three donors)
T1 sequence (P40189 23-918): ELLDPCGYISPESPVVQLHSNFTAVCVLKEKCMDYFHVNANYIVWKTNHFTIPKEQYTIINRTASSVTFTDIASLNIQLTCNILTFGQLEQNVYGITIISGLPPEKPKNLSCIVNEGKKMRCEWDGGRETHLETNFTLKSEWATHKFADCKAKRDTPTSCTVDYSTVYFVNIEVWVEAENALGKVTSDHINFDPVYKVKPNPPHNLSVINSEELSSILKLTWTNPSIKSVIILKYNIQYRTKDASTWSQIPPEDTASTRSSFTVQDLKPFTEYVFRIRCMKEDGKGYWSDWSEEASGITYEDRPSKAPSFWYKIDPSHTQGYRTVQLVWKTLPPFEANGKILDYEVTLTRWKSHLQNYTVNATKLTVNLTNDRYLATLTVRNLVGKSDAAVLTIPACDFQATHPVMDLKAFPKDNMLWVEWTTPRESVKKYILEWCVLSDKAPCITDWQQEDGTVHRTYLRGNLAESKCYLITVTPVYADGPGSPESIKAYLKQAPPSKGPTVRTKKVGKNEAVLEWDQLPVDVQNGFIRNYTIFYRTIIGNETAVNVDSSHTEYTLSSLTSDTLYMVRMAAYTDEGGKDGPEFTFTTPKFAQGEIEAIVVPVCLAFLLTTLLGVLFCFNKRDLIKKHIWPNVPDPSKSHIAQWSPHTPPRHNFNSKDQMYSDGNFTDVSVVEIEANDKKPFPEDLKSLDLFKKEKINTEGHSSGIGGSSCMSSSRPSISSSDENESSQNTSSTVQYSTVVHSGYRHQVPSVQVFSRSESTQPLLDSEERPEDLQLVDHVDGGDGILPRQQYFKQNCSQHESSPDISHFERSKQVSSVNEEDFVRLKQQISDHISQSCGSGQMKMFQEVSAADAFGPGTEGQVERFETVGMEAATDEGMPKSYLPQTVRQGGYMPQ
Source text: 423F is the positive control drug. Adult human articular chondrocytes from three independent donors were used to generate the results.
Adult human articular chondrocytes from three independent donors were used to generate the results.
Adult human articular chondrocytes from three independent donors were used.

[3] = system: pig articular cartilage explants; assay: Matrix degradation assay, OSM-driven, pig articular cartilage explants; format: cell-based
Protocol: FIG. 22A-C show matrix degradation assays.
72 hour exposure to the drug and OSM. […] Effect is concentration dependent and increases with increase in drug concentration.
(§1) Firstly, RCGD 423 was a hit from a library; this made the depth of the discovery surrounding the technology less comprehensive. Additionally, the physical properties of RCGD 423 (solubility, potency, functional groups) could be improved. Significant gains in these areas could potentially result in a first-in-class injectable for the treatment of post-traumatic OA. Moreover, the potential risks associated with promoting MYC stabilization and proliferation in gp130^+ cells as well as large increases in active STAT3 protein was of concern. […] These compounds were then screened in adult pig articular chondrocytes and cartilage explants, seeking compounds that could inhibit the catabolic effects of OSM but not drive increases in MYC and pSTAT3 protein levels. […] Together, these preliminary data identify CX-011 (B8) as a highly anti-inflammatory, anti-catabolic alternative to RCGD 423, with increased “drug-like” properties and reduced potential molecular liabilities.

[4] = system: adult synovial cells; assay: OSM-mediated cytokine secretion by adult synovial cells; format: cell-based; conditions: 10 μM
Protocol: Adult synovial cells from three independent donors were used. Molecule 805 was used at 10 μM.

[5] = target: T2, gp130 (Rattus norvegicus, UniProt P40190); assay: CFA-induced systemic inflammatory response in rats, intraarticular drug; format: in vivo
T2 construct: from tissue; host or cells: rat knee joint in vivo (Sprague-Dawley wild-type in the CFA model)
T2 sequence (P40190 23-918): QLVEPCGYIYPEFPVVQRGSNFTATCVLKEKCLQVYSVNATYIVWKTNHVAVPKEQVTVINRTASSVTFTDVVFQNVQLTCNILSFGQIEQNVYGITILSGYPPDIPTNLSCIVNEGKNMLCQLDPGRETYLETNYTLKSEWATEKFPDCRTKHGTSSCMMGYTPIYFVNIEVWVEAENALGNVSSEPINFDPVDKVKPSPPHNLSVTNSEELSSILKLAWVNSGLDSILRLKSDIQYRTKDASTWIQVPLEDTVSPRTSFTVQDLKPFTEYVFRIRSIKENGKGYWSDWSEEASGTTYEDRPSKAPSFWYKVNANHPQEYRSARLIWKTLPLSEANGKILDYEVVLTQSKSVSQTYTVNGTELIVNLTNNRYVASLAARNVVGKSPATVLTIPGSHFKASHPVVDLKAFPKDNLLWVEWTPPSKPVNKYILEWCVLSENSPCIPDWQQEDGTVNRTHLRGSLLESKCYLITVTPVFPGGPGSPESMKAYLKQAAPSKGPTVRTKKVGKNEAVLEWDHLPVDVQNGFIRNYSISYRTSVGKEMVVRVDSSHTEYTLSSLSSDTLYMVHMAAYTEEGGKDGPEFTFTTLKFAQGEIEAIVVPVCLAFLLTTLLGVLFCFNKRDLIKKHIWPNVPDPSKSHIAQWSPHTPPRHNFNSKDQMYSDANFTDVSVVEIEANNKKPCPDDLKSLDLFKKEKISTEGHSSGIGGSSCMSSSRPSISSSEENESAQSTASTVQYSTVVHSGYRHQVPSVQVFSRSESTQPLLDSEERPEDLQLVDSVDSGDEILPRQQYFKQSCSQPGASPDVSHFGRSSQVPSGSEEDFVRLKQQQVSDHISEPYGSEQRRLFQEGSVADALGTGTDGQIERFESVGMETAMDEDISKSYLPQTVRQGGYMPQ
Protocol: Rat (Sprague-Dawley wild-type) were injected with Complete Freund's Adjuvant (CFA) to induce systemic inflammatory response. Drug (805) was injected intraarticularly; multiple doses (A and B, N=3).

[6] = Medial meniscal tear surgery, intra-articular injection; format: in vivo; conditions: following medial meniscal tear surgery
[7] = Oral single dose, synovial inflammation in rat joints; format: in vivo; conditions: oral administration of a single dose
[8] = system: adult pig articular chondrocytes; assay: Proteins mediating pro-inflammatory signals with or without OSM; format: cell-based
Source text: as §1

[9] = target: T3, OSMR and gp130 (Homo sapiens, UniProt P40189); assay: Receptor competition, gp130-Flag pull-down, OSMR; format: cell-based; conditions: in the presence of OSM; IP-FLAG, WB-OSMR
T3 construct: FLAG; expressed in transfected cells; host or cells: adult human chondrocytes
T3 sequence (P40189 23-918): T1 sequence (P40189 23-918)
Protocol: Adult human chondrocytes transfected with gp130-Flag were incubated with various concentrations of RCGD 423 in the presence of IL-6 or OSM; levels of immoprecipitated IL-6R or OSMR were used to calculate the dissociation constant (Kd).
Adult human chondrocytes; IP-FLAG AB (transfected with gp130 FLAG plasmid), WB-OSMR.
This property would be of great interest due to the pro-inflammatory and pro-catabolic effects of these cytokines in the joint space. […] To assess whether RCGD 423 could directly compete for gp130 occupancy, human adult articular chondrocytes were transfected with tagged gp130 and then pulled down associated proteins±RCGD 423 and/or IL-6.

Cc1ccc(-c2csc(NC(=O)c3ccccn3)n2)cc1 [B805]
survival [1]: survive longer
OSM-mediated activation of downstream effector JAK2 [2]: strongly inhibits
OSM-mediated activation of gp130 [2]: inhibit OSM-mediated activation of gp130; also recorded: strongly inhibits OSM-mediated activation of gp130
breakdown of collagen and aggrecan (aggrecan-neo, collagen-neo epitopes) ([3]; driven by OSM): strongly prevent the breakdown of collagen and aggrecan; also recorded: prevents the breakdown of collagen and aggrecan
increase in catalytic enzymes / induction of proteolytic gene expression ([3]; driven by OSM): prevents
breakdown of collagen and aggrecan (aggrecan-neo, collagen-neo epitopes) ([3]; fresh pig cartilage explants, 72 hour exposure to drug and OSM): strongly prevents the breakdown of collagen and aggrecan
OSM-mediated secretion of IL-6 [4]: strongly inhibits
OSM-mediated secretion of TNF-α [4]: strongly inhibits
activation of gp130 in sick animals [5]: prolonged effect preventing activation gp130 in sick animals
inflammatory response in vivo ([5]; multiple doses, N=3): inhibits inflammatory response in vivo in a dose-dependent manner
cartilage degeneration [6]: reduces cartilage degeneration
synovial inflammation [7]: reduced synovial inflammation in rat joints
increases in proteins mediating pro-inflammatory signals ([8]; in the presence of OSM): strongly inhibits increases in these proteins in the presence of OSM
endogenous levels of proteins mediating pro-inflammatory signals ([8]; without OSM): little effect
competition with OSMR for gp130 occupancy / OSMR-gp130 interaction [9]: disrupts the interaction between OSMR and gp130 in a concentration-dependent manner
